This is an account of results in ChEMBL document CHEMBL4052704, “Optimization of a novel series of potent and orally bioavailable GPR119 agonists” (Bioorg Med Chem Lett, 2017).

In data set [1] the target is T1, Glucose-dependent insulinotropic receptor (Homo sapiens, UniProt Q8TDV5).
T1 sequence (Q8TDV5 whole entry): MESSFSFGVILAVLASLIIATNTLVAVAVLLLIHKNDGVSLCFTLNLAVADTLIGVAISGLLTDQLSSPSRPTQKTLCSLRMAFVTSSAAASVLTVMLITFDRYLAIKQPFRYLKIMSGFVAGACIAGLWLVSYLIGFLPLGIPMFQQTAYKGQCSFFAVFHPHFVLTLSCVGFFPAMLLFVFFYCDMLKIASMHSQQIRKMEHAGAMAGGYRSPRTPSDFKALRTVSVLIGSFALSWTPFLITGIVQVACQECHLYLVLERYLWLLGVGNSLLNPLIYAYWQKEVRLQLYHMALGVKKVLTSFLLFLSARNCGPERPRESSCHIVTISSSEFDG
The data set can be described thus: Agonist activity at human GPR119 expressed in CHOK1 cells co-expressing CRE-luciferase incubated for 4 hrs by luciferase reporter gene assay. Format: functional, cell-based. In general terms: A reporter such as luciferase makes a cellular process visible.

In data set [2] the target is T2, Glucose-dependent insulinotropic receptor (Homo sapiens) (UniProt Q8TDV5).
T2 sequence (whole entry): T1 sequence (Q8TDV5 whole entry)
The data set can be described thus: Agonist activity at human GPR119 expressed in CHOK1 cells co-expressing CRE-luciferase incubated for 4 hrs by luciferase reporter gene assay relative to 100 nM AR231453. Format: functional, cell-based.

The nature of data set [3]: Clearance in human liver microsomes. The following applies: read-out: CLH. Format: ADME, microsome. For orientation: Liver microsomes are a subcellular fraction often used to study metabolism.
A short description of data set [4]: Clearance in mouse liver microsomes. It counts as ADME, microsome. The following applies: read-out: CLH.
Data set [5] relates to Mus musculus. As to the kind of experiment: Reduction in blood glucose AUC in C57BL/6N mouse at 30 mg/kg dosed 25 mins before glucose challenge and measured over 120 mins post glucose […] by oral glucose tolerance test. Format: functional. The arrangement: scale not given: the % may be the effect or the level left.
The target of data set [6] is T1, Glucose-dependent insulinotropic receptor. As to the kind of experiment: Agonist activity at human GPR119 expressed in HEK293 cells by luciferase reporter gene assay. Format: cell-based.
Data set [7] relates to Mus musculus. The data set can be described thus: Reduction in blood glucose AUC in C57BL/6N mouse at 10 mg/kg dosed 25 mins before glucose challenge and measured over 120 mins post glucose […] by oral glucose tolerance test. Format: functional. Set-up: scale not given: the % may be the effect or the level left.
A short description of data set [8]: Plasma clearance in mouse at 0.5 mg/kg, iv. Format: ADME, organism-based.
Data set [9] in a line: Volume of distribution at steady state in mouse at 0.5 mg/kg, iv. Format: ADME, organism-based. The following applies: in vivo, read-out: Vdss.
Data set [10] in a line: Half life in mouse at 0.5 mg/kg, iv. The following applies: in vivo. It counts as ADME, organism-based.
Data set [11] can be described thus: Cmax in mouse at 10 mg/kg, po. It counts as ADME, organism-based. To be noted: in vivo. The arrangement: dose 10 mg/kg, route oral.
A short description of data set [12]: AUC in mouse at 10 mg/kg, po. Format: ADME, organism-based. The following applies: in vivo.
A short description of data set [13]: Oral bioavailability in mouse at 10 mg/kg. Format: ADME, organism-based. To be noted: in vivo.
A further data set has as its system CHO-K1. As to the kind of experiment: Cytotoxicity in CHOK1 cells by CCK8 assay. Format: cell-based. To be noted: Cricetulus griseus. In general terms: Tetrazolium dyes change colour on reduction, which living cells bring about.
The nature of data set [14]: Drug metabolism in human liver microsomes assessed as CYP450-mediated metabolism of ethyl group. Format: ADME.
Data set [15] in a line: Drug metabolism in mouse liver microsomes assessed as CYP450-mediated metabolism of ethyl group. It counts as ADME.

In general, EC50 refers to the concentration giving half of the maximal effect. Usually Emax stands for the maximal effect, on the per cent scale that the assay sets. On to `CC(O)c1cnc(N2CCC(c3coc4c(N5CCc6cc(S(C)(=O)=O)ccc65)ncnc34)CC2)nc1` (configuration not stated), for which the EC50 in data set [1] (read-out: EC50) worked out at 586 nM. Besides, in [2], the Emax was 33%. The microsomal CLint in [3] worked out at 102 µL/min/mg; in data set [4], 66 µL/min/mg.

As for `CC(C)(C)OC(=O)N1CCC(c2coc3c(N4CC(C)(C)c5cc(S(C)(=O)=O)ccc54)ncnc23)CC1`, the EC50 result in [1] was “Not Active”.

Consider `COc1cnc(N2CCC(c3coc4c(N5CCc6cc(S(C)(=O)=O)ccc65)ncnc34)CC2)nc1`, for which, in data set [1] (read-out: EC50), the EC50 is 310 nM. The Emax in data set [2] was found to be 186%. In addition, the microsomal CLint in [3] was 255 µL/min/mg; in data set [4] it was 189 µL/min/mg.

`CC(C)(C)OC(=O)N1CCC(c2coc3c(Nc4ccc(S(C)(=O)=O)cc4F)ncnc23)CC1`: in the data set with Mus musculus [5], the Activity is reported as 13%. For the same compound, in data set [1] (read-out: EC50), the EC50 worked out at 129 nM. The Emax in [2] came out at 123%.

As for `CN(c1ccc(S(C)(=O)=O)cc1F)c1ncnc2c(C3CCN(C(=O)OC(C)(C)C)CC3)coc12`, the EC50 in data set [1] (read-out: EC50) was over 1000 nM. This compound also returned an Emax in data set [2] of 6%.

Turning to `CS(=O)(=O)c1ccc2c(c1)CCN2c1ncnc2c(C3CCN(c4ncc(O)cn4)CC3)coc12`, in data set [1] (read-out: EC50), the EC50 stood at 391 nM. In [2], this compound had an Emax of 145%. The microsomal CLint in [3] is 132 µL/min/mg; in data set [4], 107 µL/min/mg.

Turning to `CC(C)(C)OC(=O)N1CCC(c2coc3c(N4CCc5cc(S(C)(=O)=O)ccc54)ncnc23)CC1`, in data set [1] (read-out: EC50), the EC50 turned out to be 53 nM. This compound registered a maximum response (Emax) in data set [2] of 123%. For the same compound, the microsomal CLint in data set [3] was 550 µL/min/mg; in data set [4], 508 µL/min/mg.

On to `Cn1cc(C2CCN(C(=O)OC(C)(C)C)CC2)c2ncnc(Nc3ccc(S(C)(=O)=O)cc3F)c21`, for which the EC50 in [1] (read-out: EC50) was over 1000 nM. This compound showed a maximum response (Emax) in [2] of 3%.

`Cc1cnc(N2CCC(c3coc4c(N5CCc6cc(S(C)(=O)=O)ccc65)ncnc34)CC2)nc1`: the EC50 in data set [1] (read-out: EC50) was 252 nM. In data set [2], this compound showed an Emax of 159%. Moreover, the microsomal CLint in data set [3] is 349 µL/min/mg; in data set [4], 145 µL/min/mg.

Regarding `CS(=O)(=O)c1ccc2c(c1)CCN2c1ncnc2c(C3CCN(c4ncccn4)CC3)coc12`, in [1] (read-out: EC50), the EC50 turned out to be 512 nM. The compound also returned a maximum response (Emax) in [2] of 196%.

For `CCCc1cnc(N2CCC(n3nnc4c(Nc5ccc(S(C)(=O)=O)cc5F)ncnc43)CC2)nc1`, in data set [6], the midpoint of the response, the EC50, lay at 82 nM.

Usually clearance stands for the rate of elimination divided by the concentration. By half-life is commonly meant how long it takes for the measured level to halve. As a reminder, the Cmax is the highest concentration seen after dosing. Usually AUC stands for concentration integrated over time. As usually defined, the bioavailability is dose-corrected exposure relative to a reference, in per cent. What is called IC50 is the concentration that gives 50% inhibition. With `CS(=O)(=O)c1ccc2c(c1)CCN2c1ncnc2c(C3CCN(c4ncc(Cl)cn4)CC3)coc12`, the EC50 in data set [1] (read-out: EC50) was found to be 42 nM. In data set [2], the maximum response (Emax) came out at 117%. Also, the results for the microsomal CLint in data set [3] and in data set [4] were 113 µL/min/mg and 108 µL/min/mg, respectively. The same compound returned an Activity in the data set with Mus musculus [7] of 33%. In data set [8], the clearance was found to be 6.5 mL/min/kg. For the same compound, the Vd in data set [9] is 2.3 L/kg. Moreover, the half-life in [10] is 5.1 h. The compound further returned a Cmax in data set [11] of 2020 ng/mL. The same compound returned an AUC in data set [12] of 9390 ng·h/mL. The compound further registered a bioavailability in data set [13] of 37%. The IC50 in the data set with CHO-K1 was over 10000 nM.

For the compound `CC(=O)c1cnc(N2CCC(c3coc4c(N5CCc6cc(S(C)(=O)=O)ccc65)ncnc34)CC2)nc1`, the EC50 in data set [1] (read-out: EC50) was found to be 78 nM. Moreover, in [2], the Emax stood at 12%. The figures for the microsomal CLint in [3] and in data set [4] were 74 µL/min/mg and 154 µL/min/mg, respectively.

The compound `CC(C)(C)OC(=O)N1CCC(n2nnc3c(Nc4ccc(S(C)(=O)=O)cc4F)ncnc32)CC1` yielded a concentration for a half-maximal effect (EC50) in [6] of 19 nM.

In the case of `CC(C)(C)OC(=O)N1CCC(c2noc3c(Nc4ccc(S(C)(=O)=O)cc4F)ncnc23)CC1`, the 50% effective concentration (EC50) in data set [1] (read-out: EC50) is 353 nM. Also, the Emax in data set [2] is 137%.

On to `CC(C)(C)OC(=O)N1CCC(c2coc3c(N4CCCc5cc(S(C)(=O)=O)ccc54)ncnc23)CC1`, for which, in [1] (read-out: EC50), the EC50 came to 793 nM. Further, the maximal response (Emax) in data set [2] was 1%.

With `CC(C)(C)OC(=O)N1CCC(c2csc3c(Nc4ccc(S(C)(=O)=O)cc4F)ncnc23)CC1`, the EC50 in data set [1] (read-out: EC50) came out at 79 nM. For the same compound, in [2], the Emax worked out at 82%.

Consider `CCc1cnc(N2CCC(c3coc4c(N5CCc6cc(S(C)(=O)=O)ccc65)ncnc34)CC2)nc1`, for which the EC50 in data set [1] (read-out: EC50) stood at 41 nM. Also, in [2], the Emax amounted to 154%. Also, the microsomal CLint came out at 412 µL/min/mg in data set [3] and 187 µL/min/mg in data set [4]. Also, the Drug metabolism result in data set [14] and in [15] was “Metabolite_Detected” each time.

Consider `CC(C)(C)OC(=O)N1CCC(c2c[nH]c3c(Nc4ccc(S(C)(=O)=O)cc4F)ncnc23)CC1`, for which the EC50 in [1] (read-out: EC50) was over 1000 nM. This compound registered an Emax in [2] of 9%.

In the case of `CS(=O)(=O)c1ccc2c(c1)CCN2c1ncnc2c(C3CCN(c4ncc(F)cn4)CC3)coc12`, the EC50 in [1] (read-out: EC50) is 201 nM. The compound also returned an Emax in data set [2] of 229%. For the same compound, the microsomal CLint stood at 257 µL/min/mg in data set [3] and 154 µL/min/mg in data set [4].

For the compound `CC(C)(C)OC(=O)N1CCC(c2coc3c(N4c5ccc(S(C)(=O)=O)cc5CC4(C)C)ncnc23)CC1`, the EC50 result in data set [1] is on record as “Not Active”.
